# Patent publication US20160264616A1, “THERAPEUTIC COMPOUNDS AND METHODS” (priority 2015, published 2016)
# Entries after “also recorded” stand apart in the source; their conditions may differ. Like-named read-outs stand apart in the source and are kept apart here.
# What was measured:
# RGS17 = molecular target: T1, RGS17 (Homo sapiens, UniProt Q9UGC6); assay: Differential scanning fluorimetry (DSF) with RGS17; type: binding; settings: 50 μM compound; for effect on RGS17 thermal stability (DSF): versus DMSO
# T1 construct: This is the same RGS17 construct used in the high throughput screening campaign that is fully active despite the N-terminal truncation; made in house
# T1 sequence (Q9UGC6 84-200 limits assumed): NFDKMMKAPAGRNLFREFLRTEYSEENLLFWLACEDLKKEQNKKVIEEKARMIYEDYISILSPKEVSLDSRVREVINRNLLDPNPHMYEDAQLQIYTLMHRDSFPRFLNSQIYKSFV
# Experimental: Further evaluation of the compounds designated UI-5, UI-1590, UI-1907 and UI-1956 was conducted using Differential Scanning Fluorimetry (DSF). This method allows for the rapid measurement of protein stability based on the melting temperature (Tm) of the target protein that is bound by ligand. A shift of Tm indicates a change in protein stability to melting due to stabilization added by the small molecule binding to the target protein. The four compounds were incubated at 50 μM with RGS17 or Gαo in the presence of Sypro Orange. In aqueous solution the fluorescence emission from the dye is very weak. However, when the dye binds to hydrophobic regions of a protein a significant increase in florescence intensity is observed intensity (20). The hydrophobic parts of a native, fully folded, protein in solution are generally buried within the protein and therefore not accessible to the dye resulting in little fluorescence emission. When the protein unfolds the dye molecules can bind to the exposed hydrophobic regions of the proteins, resulting in increased fluorescence. […] UI-5, UI-1590 and UI-1956 shifted RGS17's Tm by 2.1° C., 1.4° C. and 1.0° C., respectively (FIG. 4B). These three compounds were further characterized for activity against RGS17.
# Differential scanning fluorimetry experiments were carried out using white 384-well μltraAMP PCR plates (Sorenson BioSciences; Salt Lake City, Utah). All experiments were carried out as previously described by Phillips and Hernandez de la Pena.(55) In brief, a 1:2000 dilution of Sypro Orange was made by adding 1 μL of Sypro Orange to 2 mL of PBS at pH 7.5. First, 1.2 mg/mL protein was incubated with 50 μM of each compound at room temperature for 15 min in a 10 μL volume. Upon completion of the incubation, 110 μL of the Sypro Orange-PBS solution was added to each compound/protein mixture. This yielded a final volume of 120 μL containing 0.1 mg/mL protein. Finally, 20 μL of the Sypro Orange/compound/protein mix for each compound and RGS17 or Gαo proteins was added to four wells of the 384-well plate. The experiment was run on the Roche LightCycler 480 (Roche, Switzerland) using a two-step method. Starting with a 25° C. baseline step and a second step with a target temperature of 95° C. with continuous acquisition and set acquisition rate of 3 per ° C. All data was collected using the Roche LightCycler data acquisition ability and analyzed with Graphpad Prism 6.0, using first and second derivatives of the fluorescent melting curves.
# [1] = molecular target: T2, RGS17-accelerated Gαo GTPase activity (Homo sapiens, UniProt Q9UGC6); assay: Malachite green steady-state GTPase assay (RGS17 GAP activity); type: biochemical
# T2 construct: This is the same RGS17 construct used in the high throughput screening campaign that is fully active despite the N-terminal truncation; made in house
# T2 sequence (Q9UGC6 72-206 limits assumed): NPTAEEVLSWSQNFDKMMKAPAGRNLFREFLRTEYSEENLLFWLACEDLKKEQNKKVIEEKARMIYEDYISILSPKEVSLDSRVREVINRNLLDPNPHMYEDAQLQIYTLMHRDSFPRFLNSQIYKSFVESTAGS
# Experimental: Next, the ability of the compounds to inhibit the “GAP” activity of RGS17 was examined. The compounds were tested using a previously described malachite green assay (18), which allows for the detection of free phosphate liberated during the enzymatic cleavage of GTP to GDP by G alpha subunits.
# First, stock solutions of each of the 3 components of the developing solution were prepared according to Monroy et al (18). In brief, Compounds were seeded using a half-log dilution with the highest final concentration of compound at 100 μM down to 1 nM. […] A 4×GTP at 1.2 mM diluted in MGB, was used, with a final concentration of 300 μM. To terminate the reaction, 10 μL of a Developing Solution (DS) was 50:12.5:1 (malachite:molybdate:Tween-20) was added to each well using a Microlab Star liquid handling robot (Hamilton Robotics; Reno, Nev.), this achieved a final ratio 4:1 (sample:developing solution) absorbance was read at 642 nm.
# [2] = system: RGS17ΔN:Gαo interaction in HEK293T cells; assay: RGS localization assay, GFP-RGS17ΔN co-transfected with hGαo in HEK293T cells; type: cell-based, human
# Experimental: HEK293T cells co-transfected with GFP-RGS17FL and human Gαo were treated with UI-5, UI-1590 and […] to determine if the compounds could disrupt the RGS17:Gαo interaction that could drive RGS17 to the membrane. […] To test this hypothesis, we constructed a GFP-RGS17 fusion protein with an N-terminal truncation, removing the cysteine-rich motif. […] As a negative control, we tested a known RGS4 inhibitor (CCG-50014) in this assay against RGS17ΔN (21). […] Finally, to ensure the localization was not due to the GFP tag, pAcGFP vector was co-transfected into HEK293T cells with hGαo. […] Cross-sectional fluorescence intensity analysis was used to quantify the intensity of signal at a cross section of the cell. Average signal at the membrane and in the cytoplasm were calculated and change in signal intensity was assessed between time zero and time final. […] Additionally, the control condition of CCG-50014 was subject to the same analyses as the lead compound.
# Twenty four (24) hours prior to plating, assay plates were coated with 30 μl poly-D-lysine per well. Human Embryonic Kidney 293T cells (HEK293T) were plated in to 96 well tissue culture treated glass bottom view plates (Perkin Elmer, Part No. 6005430) at a density of 25K cells per well. 24 hours post seeding, cells were transfected with hGαo in pCDNA 3.1(+), pAcGFPRGS17 FL, pAcGFP RGS17ΔN, empty pAcGFP, hGαo+pAcGFPRGS17 FL, hGαo+pAcGFP RGS17ΔN, or hGαo+empty pAcGFP vector using Lipofectamine 2000 (Life Technologies) as the transfection reagent and according to manufacture protocols. 24 hours post transfection, cell media was removed and replaced with […] serum free, phenol red free DMEM (Life Technologies, Ref No. 31053-028). Cells were then imaged using a Zeiss LSM510 confocal microscope (University of Iowa Central Microscopy Core). Images were analyzed using NIH Image J software and Graphpad Prism 6.
# Compounds at 2× final desired concentrations were diluted in serum free, phenol red free DMEM.
# [3] = malachite green, n=3, read-out: IC50 for inhibition of RGS17 GAP activity
Structure (SMILES),shift of RGS17 Tm (RGS17) [°C],effect on RGS17 thermal stability (DSF) (RGS17),"IC50 [1, 3] [µM]",delocalization / cellular activity ([2]; 10 μM compound),time to full delocalization of GFP-RGS17 from the membrane ([2]; 10 μM compound) [min],delocalization of RGS17ΔN from the membrane ([2]; 100 μM compound),time to full delocalization of GFP-RGS17 from the membrane ([2]; 100 μM compound) [min],IC50 [1] [µM]
"O=c1c(-c2cc(O)c(O)c(O)c2)coc2cc(O)c(O)c(O)c12 [UI-1956, 5,6,7-trihydroxy-3-(3,4,5-trihydroxyphenyl)-4H-chromen-4-one]",1.0,stabilize RGS17 against thermal denaturing,35,had cellular activity,30,delocalization occurs,20,
CC(C)=CCC[C@]1(C)C=Cc2c(O)c3c(c(CC=C(C)C)c2O1)O[C@]12C(=C[C@@H]4C[C@H]1C(C)(C)O[C@@]2(C/C=C(/C)C(=O)O)C4=O)C3=O [UI-1907],,alter the thermal stability of both RGS17 and Gαo; also recorded: bind both the RGS and G protein subunit in a non-specific manner,,,,not,,
CC1=C(O)C(=O)C=C2C1=CC=C1[C@@]2(C)CC[C@@]2(C)[C@@H]3C[C@](C)(C(=O)O)CC[C@]3(C)CC[C@]12C [UI-1590],1.4,stabilize RGS17 against thermal denaturing,6.36,had cellular activity,20,delocalization occurs,5,6
C[n+]1cc2c3c(ccc2c2ccc4cc5c(cc4c21)OCO5)OCO3 [UI-5],2.1,stabilize RGS17 against thermal denaturing,12,had cellular activity,30,delocalization occurs,5,
